The source of these data is patent US20080318958A1, “New utilities of tricyclic compounds” (priority 2001, published 2008).

Molecules are shown by their SMILES.

Tested on in one data set: not given
Assay: not given
Conditions: not given
As a reminder, the melting point is the temperature, or range, at which the solid turns liquid. Take `c1ccc(-c2ccnc(-c3ccccc3)n2)cc1` [Compound I-4]: the melting point was 66 to 69 °C.

`c1ccc(-c2cc(-c3ccccc3)ncn2)cc1` [Compound I-5] displayed a melting point of 91 to 92 °C.

`c1ccc(-c2cncc(-c3ccccc3)n2)cc1` [Compound I-6] registered a melting point of 88.5 to 90 °C.

On to `c1ccc(-c2ccc(-c3ccccc3)nn2)cc1` [Compound I-7], for which the melting point was 218 to 220 °C.

With `c1ccc(-c2ccc(-c3ncccn3)cc2)cc1` [Compound I-8], the melting point was in the range of 112 to 113 °C.

Turning to `c1ccc(-c2cccc(-c3ncccn3)c2)cc1` [Compound I-9], the melting point lay in the range of 46 to 48 °C.

For the compound `c1ccc(-c2ccc(-c3cnccn3)cc2)cc1` [Compound I-10], the melting point lay within 177 to 178 °C.

Consider `c1ccc(-c2ccc(-c3ccccc3)nc2)cc1` [Compound I-11], for which the melting point fell in the range of 176 to 177 °C.

Consider `c1ccc(-c2nnc(-c3ccccc3)c3ccccc23)cc1` [Compound I-12], for which the melting point lay within 203 to 205 °C.

Compound `COc1ccc(-c2nnc(-c3ccccc3)c3ccccc23)cc1` [Compound I-13] came in with a melting point of 175 to 177 °C.

For a further data set, the system named is promoter region of the gene encoding human apoAI. The data set can be described thus: Activity to enhance the expression of human apoAI: apoAI promoter-firefly luciferase reporter in stably transfected HepG2 cells. The format is cell-based. To be noted: concentration that intensified the luciferase activity twice compared to DMSO control, 24 hours incubation with compound, read-out: MED (minimal effective dose). On the procedure:
The promoter region of the gene encoding human apoAI was isolated, and ligated upstream the structure gene of firefly luciferase to construct a reporter plasmid. The reporter plasmid and a marker plasmid conferring the neomycin resistance were co-infected to cell lines derived from human hepatoma, HepG2 cells, and the cell lines were incubated in a selection medium comprising DMEM medium containing 10% fetal calf serum supplemented with G418 (Final concentration: 0.7 mg/mL, Gibco) to give established strains that stably expressed the reporter molecule. The strains were seeded to a 96-well culture plates at a density of 50,000 cells per well, and incubated for 48 hours at 37° C. under an atmosphere of 5% carbon dioxide. Then, a solution of the compounds according to the invention in DMSO was added to the wells at final concentrations of 0 to 10 μg/mL. After further incubation for 24 hours, the cells were added with a luciferase assay reagent (Piccagene LT 7.5 registered trade mark, Toyo Ink, KK), and the luciferase activity was determined using a luminometer (MicroBeta™ TRILUX, 1 sec/well, Wallac). The concentration of the compounds, which intensified the luciferase activity twice compared to that of control (DMSO without any compound of the invention added) was set as the minimal effective dose (MED).
On the technique in general: A reporter such as luciferase makes a cellular process visible.
Turning to `c1ccc(-c2ccc(-c3ccncn3)cc2)cc1` [Compound I-1], the EC (2-fold luciferase activity) was 0.63 µM.

Turning to `c1ccc(-c2cnc(-c3ccccc3)nc2)cc1` [Compound I-2], the EC (2-fold luciferase activity) was 0.2 µM.

As to `c1ccc(-c2cncc(-c3ccccc3)n2)cc1` [Compound I-6], the EC (2-fold luciferase activity) was 3.11 µM.

`c1ccc(-c2ccc(-c3ccccc3)nn2)cc1` [Compound I-7]: the EC (2-fold luciferase activity) came out at 0.04 µM.

Take `c1ccc(-c2ccc(-c3ncccn3)cc2)cc1` [Compound I-8]: the EC (2-fold luciferase activity) is 0.09 µM.

For the compound `c1ccc(-c2ccc(-c3cnccn3)cc2)cc1` [Compound I-10], the EC (2-fold luciferase activity) was 0.71 µM.

On to `c1ccc(-c2ccc(-c3ccccc3)nc2)cc1` [Compound I-11], for which the EC (2-fold luciferase activity) was 0.21 µM.

In the case of `c1ccc(-c2ccc(-c3cnc4ccccc4n3)cc2)cc1` [Compound I-16], the EC (2-fold luciferase activity) turned out to be 0.1 µM.

Take `c1ccc(-c2ccc(-c3ccc4ccccc4n3)cc2)cc1` [Compound I-17]: the EC (2-fold luciferase activity) amounted to 0.33 µM.

For `Cc1cc(-c2ccc(-c3ccccc3)cc2)nc2ccccc12` [Compound I-18], the EC (2-fold luciferase activity) stood at 1.1 µM.

As for `c1ccc(-c2ccc(-c3ccccn3)cc2)cc1` [Compound I-20], the EC (2-fold luciferase activity) was found to be 0.23 µM.

For `Cc1cccc(-c2ccc(-c3ccccc3)cc2)n1` [Compound I-21], the EC (2-fold luciferase activity) came out at 2.3 µM.

`COc1cccc(-c2ccc(-c3ccccc3)cc2)n1` [Compound I-22]: the EC (2-fold luciferase activity) was found to be 0.84 µM.

Consider `CCc1cnc(-c2ccc(-c3ccccc3)cc2)nc1` [Compound I-23], for which the EC (2-fold luciferase activity) amounted to 0.27 µM.

On to `COc1cc(OC)nc(-c2ccc(-c3ccccc3)cc2)n1` [Compound I-24], for which the EC (2-fold luciferase activity) came out at 2.2 µM.

Regarding `c1ccc(-c2ccc(-c3cccnn3)cc2)cc1` [Compound I-25], the EC (2-fold luciferase activity) came out at 0.29 µM.

In the case of `Clc1ccc(-c2ccc(-c3ccccc3)cc2)nn1` [Compound I-26], the EC (2-fold luciferase activity) is 0.27 µM.

As to `COc1ccc(-c2ccc(-c3ccccc3)cc2)nn1` [Compound I-27, 3-(4-Biphenyl)-6-methoxypyridazin], the EC (2-fold luciferase activity) was found to be 0.06 µM.

Turning to `c1ccc(-c2ccc(-c3ccc(-c4ccccc4)nn3)cc2)cc1` [Compound I-28], the EC (2-fold luciferase activity) stood at 2.5 µM.

Regarding `COc1nc(OC)nc(-c2ccc(-c3ccccc3)cc2)n1` [Compound I-29], the EC (2-fold luciferase activity) is 2.5 µM.

`COc1cccc(-c2cnc(-c3cccc(OC)c3)cn2)c1` [Compound I-35]: the EC (2-fold luciferase activity) stood at 0.29 µM.

As to `c1ccc(-c2ccc(-c3ccsc3)cc2)nc1` [Compound I-36, 2-[4-(3-Thienyl)phenyl]pyridine], the EC (2-fold luciferase activity) amounted to 1.3 µM.

For the compound `c1ccc(-c2ccc(-c3ccoc3)cc2)nc1` [Compound I-37], the EC (2-fold luciferase activity) was 4.4 µM.

As for `COc1ccc(-c2ccc(-c3ccccn3)cc2)cc1` [Compound I-40], the EC (2-fold luciferase activity) was determined as 0.16 µM.

Regarding `Cc1ccc(-c2ccc(-c3ccccn3)cc2)cc1` [Compound I-42], the EC (2-fold luciferase activity) was 0.09 µM.

For `CC(=O)Nc1ccc(-c2ccc(-c3ccccn3)cc2)cc1` [Compound I-43], the EC (2-fold luciferase activity) came out at 0.3 µM.

In the case of `C#CC1COc2ccc(-c3c(OC)cc(-c4ccc(O)cc4)c(OC)c3O)cc2O1` (stereo not drawn) [Compound I-44], the EC (2-fold luciferase activity) worked out at 0.6 µM.

As for `COc1cc(-c2ccc(O)cc2)c(OC)c(O)c1-c1ccc2c(c1)OC(O)CO2` (stereo not drawn) [Compound I-45], the EC (2-fold luciferase activity) worked out at 2.4 µM.

For the compound `COc1cc(-c2ccc(O)cc2)c(OC)c(O)c1-c1ccc(OC/C=N/C2CCN(C)CC2)c(O)c1` [Compound I-48], the EC (2-fold luciferase activity) was found to be 1.6 µM.
